Measurements taken from US20080220416A1, “Compositions for Inhibiting Cell Growth and Inducing Apoptosis in Cancer Cells and Methods of Use Thereof” (THE BOARD OF TRUSTEES OF THE UNIVERSITY OF ILLINOI, priority 2004, published 2008).
Square brackets hold non-standard residues; d marks the D form. Peptide text beside a SMILES is read from it. * marks the point of attachment. Nle = CCCC[C@H](N)C(=O)O; Cbz = O=C(OCc1ccccc1)*

Key:
Assay type in all cases: cell-based, human
[1] = tested on: cyclins A and B1; assay: Cyclin expression in MDA-MB231 cells (ribonuclease protection assay, Western blot)
Procedure: To explore the effects on Notch-1 siRNA on the expression of cyclins, the main regulators of cell cycle progression, ribonuclease protection assays and Western blots on Notch-1 siRNA-treated cells were performed. Transfection of the MBA-MD231 cells with Notch-1 siRNA (5′-AAGTGTCTGAGGCCAGCAAGA-3′) (SEQ ID NO. 1) or control siRNA (5′-AACAGTCGCGTTTGCGACTGG-3′) (SEQ ID NO: 5), was performed as described above. Ribonuclease protection assays were performed by first preparing total RNA using a RNeasy Mini kit (QIAGEN Cat. #74104) according to the manufacturer's instructions. The multi-probe template set hCYC-1 (containing DNA templates for cyclin A, cyclin B, cyclin C, cyclin D1, cyclin D2, cyclin D3, cyclin A1 L32 and GAPDH) was purchased from BD Biosciences (Cat. # 556189). The DNA template was used to synthesize a [^32P]UTP (10 mCi/ml, Amersham Bioscience) labelled probe in the presence of a GACU pool using a […] RNA-polymerase (BD Bioscience RiboQuant RPA starter package, Cat. # 556144). Hybridization with 20 μg of each target RNA was performed at 56° C. overnight, followed by digestion with RNAse A and T1 according to the BD Bioscience standard protocol. After proteinase K treatment, samples were precipitated, loaded on a 4.75% acrylamide-urea gel, and run at 55 W with 0.5×TBE. Gels were dried in the gel dryer under vacuum for 2 h at 90° C. Then gels were exposed on Kodak film (Eastman Kodak, Rochester, N.Y.) with intensifying screens and developed at −70° C. Western blots were performed as described above. […] Western blot data confirmed these findings. […] CDK1 levels were only modestly affected. Cyclin A/cdk2 phosphorylates E2F-1/DP complexes at the end of S-phase, inactivating them. This prevents a re-initiation of DNA replication and assures that the genome is replicated only once at each S phase. Failure of cyclin A/cdk2 to inactivate E2F results in inappropriately persistent E2F activity, which may lead to apoptosis. E2F-1 is known to upregulate its own transcription. […]

[2] = tested on: MDA-MB231 cells; assay: Cell cycle distribution of MDA-MB231 cells by flow cytometry
Procedure: Cell cycle analysis was performed to further study the effects of inhibition of Notch signaling in breast cancer cells. MDA-MB231 cells were treated overnight with 0-10 μM z-Leu-Leu-Nle-CHO prior to cell cycle distribution analysis by flow cytometry. Alternatively, MDA-MB231 cells were transfected with Notch-1, Notch-4 or control siRNA as described above in Example 15. For cell cycle distribution analysis by flow cytometry, z-Leu-Leu-Nle-CHO- or siRNA-treated cells (10^6) were pelleted and washed twice in PBS. Cells were then fixed in 80% methanol and stored at −20° C. until use. Fixed cells were pelleted and washed twice in PBS, and resuspended in 50 μl PI:PBS solution (50 μg/ml PI). After RNase A (100 μg/ml) treatment at 37° C. for an hour, cells were analyzed by flow cytometry using a FACScalibur instrument.

[3] = tested on: normal melanocytes; assay: Proteasome inhibitors, apoptosis of normal melanocyte cultures (Annexin V FITC flow cytometry)
Procedure: The proteasome inhibitors lactacystin, MG-132, and bortezomib were evaluated for the ability to induce apoptosis in malignant melanoma cell lines (n=3) including an early passage line, RJ002L. MG-132 was obtained from Calbiochem (La Jolla, Calif.) and dissolved in DMSO. Lactacystin was purchased from Sigma Chemical Co. (St. Louis, Mo.) and dissolved in PBS. Bortezomib was obtained from a pharmacy as VELCADE (bortezomib) for Injection from a single use vial for intravenous use only (Millennium Pharmaceuticals, Cambridge, Mass.). A cell line with wild-type p53 (RJ002L) and two melanoma cell lines with mutant p53 alleles (C8161 and MUM2B) were included in this study. Two additional melanoma cell lines were also used: cutaneous SK-MeI-28 cells and primary, early passage MG012 cells. In addition, five normal melanocyte culture cell lines (MC-005, MC-006, MC-008, MC-009 and MC-011) were examined. Prior to testing, the melanoma cell lines were maintained in RPMI supplemented with 10% FBS. Normal human melanocytes were isolated from neonatal foreskins as previously described (Qin J et al., 2004, Mol Cancer Ther 3:895-902, 2004) and cultured with medium 154 containing growth supplements (Cascade Biologics, Portland, Oreg.).
To assess the effect of proteasome inhibitors on the cell lines, the cells were grown in suitable culture media as described above. […]
Following treatment with the proteasome inhibitors, the melanoma and melanocyte cell cultures were assayed for apoptotic cells using the APO TARGET Annexin V FITC staining kit (Biosource, Camarillo, Calif.) according to the manufacturer's instructions followed by flow cytometric analysis using FACScaliber (Becton Dickinson, Palo Alto, Calif.) as described in Qin, J. et al., 2001, Nat Med 7: 385-386. In some cases, cell cycle and apoptosis analysis was measured using propidium iodide staining and flow cytometry as described. […] For cell analysis, DNA histograms were analyzed using MultiCycle for Windows (Phoenix Flow Systems, San Diego, Calif.) as described in Denning, M. F. et al., 1998, J Biol Chem 273: 29995-30002.

For “5′-AAGTGTCTGAGGCCAGCAAGA-3′ [Notch-1 siRNA]”, the “cyclin B1 protein (Western blot)” value [1] was “striking decrease in the steady state levels of cyclin B1 at 48 hours”, the “cyclin mRNA expression (ribonuclease protection assay)” value [1] was “decreases the expression of mRNAs for cyclins B1 and A, but not C, D, or A1” and the cell cycle distribution ([2]; siRNA transfection) was “accumulation of cells in G2/M was maximal at 24 hours”.

`CC(C)C[C@@H](C=O)NC(=O)[C@H](CC(C)C)NC(=O)[C@H](CC(C)C)NC(=O)OCc1ccccc1` [MG-132, benzoxycarbonyl-Leucyl-Leucyl-Leucyl-aldehyde] (Cbz-Leu-Leu-Leu-aldehyde) was tested, and the cells undergoing apoptosis ([3]; MC-005, MC-006, MC-008, 24 hrs, 1, 5 or 10 μM) was “No more than 10%”.

With `CC(C)C[C@H](NC(=O)[C@H](Cc1ccccc1)NC(=O)c1cnccn1)B(O)O` [bortezomib, N-(2-pyrazine)carbonyl-L-phenylalanine-L-leucine boronic acid] the apoptotic response ([3]; MC009 and MC011, 0.01 to 10 μM, 24 hrs continuous exposure) was “less than 10%”.

`CCCC[C@@H](C=O)NC(=O)[C@H](CC(C)C)NC(=O)[C@H](CC(C)C)NC(=O)OCc1ccccc1` [z-Leu-Leu-Nle-CHO, N-benzyloxycarbonyl-leucyl-leucyl-norleucinal] (Cbz-Leu-Leu-[Nle]-aldehyde) was tested, and the “cyclin A and cyclin B protein (Western blot)” value ([1]; 0.5 or 1 μM, 24 h) was “dramatically reduced the levels of cyclin A protein at 0.5 μM, whereas cyclin B was decreased at 1 μM” and the cell cycle distribution ([2]; 0-10 μM overnight) was “accumulation of cells in the G2/M stage of the cell cycle”.
